Experimental data published in ChEMBL document CHEMBL1697731, “Cheminformatics analysis of assertions mined from literature that describe drug-induced liver injury in different species” (Chem Res Toxicol, 2010).

Legend:
Hepatotoxicity [1] = assay: Literature-mined compound from Fourches et al multi-species drug-induced liver injury (DILI) dataset, effect in humans; settings: human
Hepatotoxicity [2] = assay: Literature-mined compound from Fourches et al multi-species drug-induced liver injury (DILI) dataset, effect in rodents; settings: rodentia
Hepatotoxicity [3] = assay: Literature-mined compound from Fourches et al multi-species drug-induced liver injury (DILI) dataset, effect in non-rodents

Row | Compound | Hepatotoxicity (Hepatotoxicity [1]) | Hepatotoxicity (Hepatotoxicity [2]) | Hepatotoxicity (Hepatotoxicity [3]) | Hepatotoxicity (Hepatotoxicity [1]; Liver) | Hepatotoxicity (Hepatotoxicity [2]; Liver) | Hepatotoxicity (Hepatotoxicity [3]; Liver)
1 | CCCc1cc(C(N)=S)ccn1 [PROTIONAMIDE] | drug-induced liver injury reported | no drug-induced liver injury reported | no drug-induced liver injury reported |  |  | 
2 | CC(C)C[C@H](NC(=O)[C@H](Cc1ccccc1)NC(=O)c1cnccn1)B(O)O [BORTEZOMIB] |  |  |  | drug-induced liver injury reported | drug-induced liver injury reported | no drug-induced liver injury reported
3 | O=c1[nH]c2ccccc2n1C1CCN(CCCC(c2ccc(F)cc2)c2ccc(F)cc2)CC1 [PIMOZIDE] | drug-induced liver injury reported | no drug-induced liver injury reported | no drug-induced liver injury reported |  |  | 
4 | Nc1ccn([C@@H]2CS[C@H](CO)O2)c(=O)n1 [LAMIVUDINE] | drug-induced liver injury reported | drug-induced liver injury reported | no drug-induced liver injury reported |  |  | 
5 | NC(=O)c1cccnc1 [NIACINAMIDE] | drug-induced liver injury reported | drug-induced liver injury reported | no drug-induced liver injury reported |  |  | 
6 | COc1ccc(CN2CCNCC2)c(OC)c1OC [TRIMETAZIDINE] | drug-induced liver injury reported | drug-induced liver injury reported | no drug-induced liver injury reported |  |  | 
7 | COc1ccc(-c2cc(=S)ss2)cc1 [ANETHOLTRITHION] | no drug-induced liver injury reported | drug-induced liver injury reported | no drug-induced liver injury reported |  |  | 
8 | O=c1ccn([C@@H]2O[C@H](CO)[C@@H](O)[C@H]2O)c(=O)[nH]1 [URIDINE] | drug-induced liver injury reported | drug-induced liver injury reported | no drug-induced liver injury reported |  |  | 
9 | CN(C)c1ccc(O)c2c1C[C@H]1C[C@H]3[C@H](N(C)C)C(O)=C(C(N)=O)C(=O)[C@@]3(O)C(O)=C1C2=O [MINOCYCLINE] | drug-induced liver injury reported | drug-induced liver injury reported | no drug-induced liver injury reported |  |  | 
10 | Cc1ccc(S(=O)(=O)NC(=O)NN2CCCCCC2)cc1 [TOLAZAMIDE] | drug-induced liver injury reported | drug-induced liver injury reported | no drug-induced liver injury reported |  |  | 
11 | COc1ccc2c3c1O[C@H]1C(=O)CC[C@@]4(O)[C@@H](C2)N(C)CC[C@]314.Cl [OXYCODONE HYDROCHLORIDE] |  |  |  | no drug-induced liver injury reported | drug-induced liver injury reported | no drug-induced liver injury reported
12 | O=C(CCNNC(=O)c1ccncc1)NCc1ccccc1 [NIALAMIDE] | no drug-induced liver injury reported | drug-induced liver injury reported | no drug-induced liver injury reported |  |  | 
13 | Cc1cnc(NCCCN(C)C)c2c1[nH]c1ccc3cc(O)ccc3c12 [INTOPLICINE] | drug-induced liver injury reported | no drug-induced liver injury reported | no drug-induced liver injury reported |  |  | 
14 | C=CC[C@@H]1/C=C(\C)C[C@H](C)C[C@H](OC)[C@H]2O[C@@](O)(C(=O)C(=O)N3CCCC[C@H]3C(=O)O[C@H](/C(C)=C/[C@@H]3CC[C@@H](O)[C@H](OC)C3)[C@H](C)[C@@H](O)CC1=O)[C@H](C)C[C@@H]2OC [TACROLIMUS ANHYDROUS] | drug-induced liver injury reported | drug-induced liver injury reported | no drug-induced liver injury reported |  |  | 
15 | O=C1CN=C(c2ccccc2)c2cc([N+](=O)[O-])ccc2N1 [NITRAZEPAM] | no drug-induced liver injury reported | drug-induced liver injury reported | no drug-induced liver injury reported |  |  | 
16 | O=C(Cc1cccs1)N[C@@H]1C(=O)N2C(C(=O)[O-])=C(C[n+]3ccccc3)CS[C@H]12 [CEPHALORIDINE] | drug-induced liver injury reported | no drug-induced liver injury reported | no drug-induced liver injury reported |  |  | 
17 | Nc1nc(O)c2ncn(COC(CO)CO)c2n1 [GANCICLOVIR] | drug-induced liver injury reported | no drug-induced liver injury reported | no drug-induced liver injury reported |  |  | 
18 | CC(=O)[O-].[Na+] [SODIUM ACETATE] |  |  |  | no drug-induced liver injury reported | drug-induced liver injury reported | no drug-induced liver injury reported

Row | Compound | Hepatotoxicity (Hepatotoxicity [1]) | Hepatotoxicity (Hepatotoxicity [2]) | Hepatotoxicity (Hepatotoxicity [3]) | Hepatotoxicity (Hepatotoxicity [1]; Liver) | Hepatotoxicity (Hepatotoxicity [2]; Liver) | Hepatotoxicity (Hepatotoxicity [3]; Liver)
19 | COCc1c(C(C)C)nc(C(C)C)c(/C=C/[C@@H](O)C[C@@H](O)CC(=O)[O-])c1-c1ccc(F)cc1.[Na+] [CERIVASTATIN SODIUM] | no drug-induced liver injury reported | drug-induced liver injury reported | drug-induced liver injury reported |  |  | 
20 | CCc1c2c(nc3ccc(OC(=O)N4CCC(N5CCCCC5)CC4)cc13)-c1cc3c(c(=O)n1C2)COC(=O)[C@]3(O)CC [IRINOTECAN] | drug-induced liver injury reported | no drug-induced liver injury reported | no drug-induced liver injury reported |  |  | 
21 | O=C(O)c1cc(-c2ccc(F)cc2F)ccc1O [DIFLUNISAL] |  |  |  | drug-induced liver injury reported | drug-induced liver injury reported | drug-induced liver injury reported
22 | CCN1CCN(C(=O)N[C@@H](C(=O)N[C@@H]2C(=O)N3[C@@H]2SC(C)(C)[C@@H]3C(=O)O)c2ccccc2)C(=O)C1=O [PIPERACILLIN] | no drug-induced liver injury reported | drug-induced liver injury reported | drug-induced liver injury reported |  |  | 
23 | OCCOCCN1CCN(C(c2ccccc2)c2ccc(Cl)cc2)CC1 (stereo not drawn) [HYDROXYZINE] | drug-induced liver injury reported | no drug-induced liver injury reported | no drug-induced liver injury reported |  |  | 
24 | CC(C)c1ccc(C(=O)NC(=N)N)cc1S(C)(=O)=O [CARIPORIDE] | no drug-induced liver injury reported | drug-induced liver injury reported | no drug-induced liver injury reported |  |  | 
25 | Cc1cc(NS(=O)(=O)c2ccc(N)cc2)no1 [SULFAMETHOXAZOLE] |  |  |  | drug-induced liver injury reported | no drug-induced liver injury reported | no drug-induced liver injury reported
26 | C#C[C@]1(OC(C)=O)CC[C@H]2[C@@H]3CCC4=CC(=O)CC[C@@H]4[C@H]3CC[C@@]21C [NORETHINDRONE ACETATE] | no drug-induced liver injury reported | drug-induced liver injury reported | drug-induced liver injury reported |  |  | 
27 | SPIRAMYCIN | drug-induced liver injury reported | no drug-induced liver injury reported | no drug-induced liver injury reported |  |  | 
28 | NC[C@H](O)c1ccc(O)c(O)c1 [NOREPINEPHRINE] | drug-induced liver injury reported | drug-induced liver injury reported | drug-induced liver injury reported |  |  | 
29 | O=C(O)COCCN1CCN(C(c2ccccc2)c2ccc(Cl)cc2)CC1 (stereo not drawn) [CETIRIZINE] |  |  |  | drug-induced liver injury reported | no drug-induced liver injury reported | no drug-induced liver injury reported
30 | Cc1cccc(C)c1OCC(=O)N[C@@H](Cc1ccccc1)[C@@H](O)C[C@H](Cc1ccccc1)NC(=O)[C@H](C(C)C)N1CCCNC1=O [LOPINAVIR] | drug-induced liver injury reported | no drug-induced liver injury reported | no drug-induced liver injury reported |  |  | 
31 | Cn1cnc2c(F)c(Nc3ccc(Br)cc3Cl)c(C(=O)NOCCO)cc21 [SELUMETINIB] | no drug-induced liver injury reported | drug-induced liver injury reported | no drug-induced liver injury reported |  |  | 
32 | CN(C)[C@@H]1C(O)=C(C(N)=O)C(=O)[C@@]2(O)C(O)=C3C(=O)c4c(O)cccc4[C@@](C)(O)[C@H]3C[C@@H]12 [TETRACYCLINE] | drug-induced liver injury reported | drug-induced liver injury reported | drug-induced liver injury reported |  |  | 
33 | COc1cc(C(=O)NS(=O)(=O)c2ccccc2C)ccc1Cc1cn(C)c2ccc(NC(=O)OC3CCCC3)cc12 [ZAFIRLUKAST] | drug-induced liver injury reported | no drug-induced liver injury reported | no drug-induced liver injury reported |  |  | 
34 | Clc1ccc2nsnc2c1NC1=NCCN1 [TIZANIDINE] |  |  |  | drug-induced liver injury reported | no drug-induced liver injury reported | no drug-induced liver injury reported
35 | O=[N+]([O-])O[C@@H]1CO[C@H]2[C@@H]1OC[C@@H]2O [ISOSORBIDE MONONITRATE] | drug-induced liver injury reported | no drug-induced liver injury reported | no drug-induced liver injury reported |  |  | 
36 | C[C@@H]1[C@H](O)[C@@H](C)/C=C/C=C/C=C/C=C/C=C/C=C/C=C/[C@H](O[C@@H]2O[C@H](C)[C@@H](O)[C@H](N)[C@@H]2O)C[C@@H]2O[C@](O)(C[C@@H](O)C[C@@H](O)[C@H](O)CC[C@@H](O)C[C@@H](O)CC(=O)O[C@H]1C)C[C@H](O)[C@H]2C(=O)O [AMPHOTERICIN B] | drug-induced liver injury reported | drug-induced liver injury reported | no drug-induced liver injury reported |  |  | 
